Experiments:
primary T cells = assay: response of mitogen (PHA) stimulated T-cells to selective 5-HT1A inhibitors; format: cell-based; conditions: mitogen (PHA) stimulated T cell cultures, at the concentrations tested (FIG. 2)
[1] = tested on: neoplastic B and T cell lines; assay: inhibition of activation of neoplastic B and T cell lines; format: cell-based
From the text: Each of the tested compounds has a high affinity for the 5-HT1A receptor and was expected to inhibit the receptor's activity equally well.

Compound	inhibition of the activation of primary T cells (primary T cells)	inhibition of the activation of neoplastic B and T cell lines [1]
COc1ccccc1N1CCN(CCCCN2C(=O)c3ccccc3C2=O)CC1 [NAN-190]	reproducibly inhibited	reproducibly inhibited
COc1ccccc1N1CCN(CCN(C(=O)c2ccc(F)cc2)c2ccccn2)CC1 [p-MPPF]	little or no effects	–
WAY-100635	little or no effects	–

From US20050202467A1, “Novel spliced 5-HT1A receptors and methods, kits, and uses relating thereto” (Philadelphia Health and Education Corporation (d/b/a MCP …, priority 2003, published 2005)
